Drawing on patent US11926598B1, “1-(4-nitrobenzylideneamino)-5-phenylimidazolidine-2,4-dione as an antimicrobial compound” (KING FAISAL UNIVERSITY, priority 2023, dated 2024), this text covers inhibition zone for two compounds.

Molecules are shown by their SMILES.

What all share (format): cell-based
For one assay, the system named is Escherichia coli. Kind of assay: Agar plate disc-diffusion, antibacterial inhibition zone. The note with it: Escherichia coli (Gram negative). On the procedure:
(§1) The agar plate disc-diffusion method was applied. […] The discs were then placed onto the surface of agar plates (nutrient agar for bacteria and Sabouraud's dextrose agar for fungi) seeded with the test organism. Each plate contained 15 mL of the agar medium, previously seeded with 0.2 mL of the broth culture of each organism pregrown for 18 hours. The plates were incubated at 37° C. for 48 hours, and 72 hours for fungi. The inhibition zones was measured in millimeter. Discs impregnated with DMSO were used as a control, and its inhibition zone was subtracted from the tested compound actual inhibition zone.
(§2) The results of the antimicrobial testing can be observed in Tables 1 and 2, below, with ciprofloxacin serving as a reference.

A further assay concerns Bacillus Cereus. The assay is described as above. As to conditions: Bacillus Cereus (Gram positive). The procedure: as §1, §2
A further assay has as its system Staphylococcus aureus. The assay is described as above. The note with it: Staphylococcus aureus (Gram positive). On the procedure:
as §1, §2

The subject of another assay is Pseudomonas aeruginosa. The assay is described as above. As to conditions: Pseudomonas aeruginosa (Gram negative). On the procedure: as §1, §2
In assay [1] the test system is Chrysosporium keratinophilum. Kind of assay: Agar plate disc-diffusion, antifungal inhibition zone. On the procedure: as §1, §2
For orientation: In agar diffusion tests the substance spreads into inoculated agar from a disc or well.

In the next assay the test system is Aspergillus flavus. Described as above. The procedure: as §1, §2
[2] abbreviates: A = concentration of comp. = 10,000 μL.
[3] abbreviates: B = concentration of comp. = 30.000 μL.
The mark [4] stands for this setting: C = concentration of comp. = 50,000 μL.

On to `O=C(O)c1cn(C2CC2)c2cc(N3CCNCC3)c(F)cc2c1=O` [Cip., ciprofloxacin], for which the inhibition zone with Escherichia coli (setting [2]) is 30 millimeter; in the assay on Escherichia coli (setting [3]), 39 millimeter; in the assay with Escherichia coli (setting [4]) it was 60 millimeter; with Bacillus Cereus (setting [2]), 29 millimeter; with Bacillus Cereus (setting [3]) it was 30 millimeter; in the assay on Bacillus Cereus (setting [4]), 42 millimeter. In addition, the inhibition zone was 43 millimeter in the assay with Staphylococcus aureus (setting [2]); 44 millimeter in the assay on Staphylococcus aureus (setting [3]); 53 millimeter in the assay with Staphylococcus aureus (setting [4]); 29 millimeter in the assay on Pseudomonas aeruginosa (setting [2]); 30 millimeter in the assay with Pseudomonas aeruginosa (setting [3]); 53 millimeter with Pseudomonas aeruginosa (setting [4]). In addition, the inhibition zone in assay [1] (setting [2]) was 29 millimeter; in assay [1] (setting [3]) it was 30 millimeter; in assay [1] (setting [4]), 53 millimeter; in the assay with Aspergillus flavus (setting [2]) it was 29 millimeter; in the assay with Aspergillus flavus (setting [3]), 30 millimeter; with Aspergillus flavus (setting [4]), 42 millimeter.
For `O=C1NC(=O)N(N=Cc2ccc([N+](=O)[O-])cc2)C1c1ccccc1` (stereo not drawn) [Compound 4, 1-(4-nitrobenzylideneamino)-5-phenylimidazolidine-2,4-dione], the inhibition zone with Escherichia coli (setting [2]) is 30 millimeter; in the assay with Escherichia coli (setting [3]), 35 millimeter; with Escherichia coli (setting [4]) it was 51 millimeter; in the assay with Bacillus Cereus (setting [2]) it was 25 millimeter; with Bacillus Cereus (setting [3]), 27 millimeter; in the assay with Bacillus Cereus (setting [4]) it was 37 millimeter. Moreover, the inhibition zone in the assay on Staphylococcus aureus (setting [2]) is given as 19 millimeter; in the assay on Staphylococcus aureus (setting [3]) it was 24 millimeter; in the assay with Staphylococcus aureus (setting [4]), 30 millimeter; in the assay on Pseudomonas aeruginosa (setting [2]), 25 millimeter; with Pseudomonas aeruginosa (setting [3]) it was 27 millimeter; in the assay on Pseudomonas aeruginosa (setting [4]) it was 40 millimeter. Further, the inhibition zone in assay [1] (setting [2]) worked out at 26 millimeter; in assay [1] (setting [3]), 28 millimeter; in assay [1] (setting [4]), 50 millimeter; in the assay on Aspergillus flavus (setting [2]) it was 19 millimeter; in the assay on Aspergillus flavus (setting [3]), 24 millimeter; in the assay with Aspergillus flavus (setting [4]), 35 millimeter.
